Assay results taken from patent publication US9540649B2, “Method for opening tight junctions” (The Provost, Fellows and Scholars of the College of the …, priority 2007, dated 2017).
Entries after “also recorded” stand apart in the source; their conditions may differ.

Tests used:
[1] = test system: Tie-2; test: Tie-2 expression following suppression of claudin-5 (Western blot); assay type: in vivo, C57/Bl6 mice; settings: any time point post delivery of claudin-5 siRNA
[2] = test system: claudin-5 mRNA; test: Real-time RT-PCR analysis of claudin-5 mRNA in brain post-injection of siRNA; assay type: in vivo, C57/Bl6 mice
Experimental: Rapid high pressure, high volume tail vein injections were carried out (Kiang et al., 2005). Wild type C57/Bl6 mice of weight 20-30 g were individually restrained inside a 60-ml volume plastic tube. The protruding tail was warmed for 5 minutes prior to injection under a 60-W lamp and the tail vein clearly visualized by illumination from below. 20 micrograms of targeting siRNA, or non-targeting siRNA made up with PBS to a volume in mls of 10% of the body weight in grams or PBS alone, was injected into the tail vein at a rate of 1 ml/sec using a 26-gauge (26 G 3/8) needle. After 24, 48, 72 hours and 1 week, protein was isolated from total brain tissue by crushing brains to a fine powder in liquid N2 and subsequently using lysis buffer containing 62.5 mM Tris, 2% SDS, 10 mM Dithiothreitol, 10 μl protease inhibitor cocktail/100 ml (Sigma Aldrich, Ireland). The homogenate was centrifuged at 10,000 g for 20 mins @4° C., and the supernatant was removed for claudin-5 analysis.
At the same time points post-delivery of siRNA total RNA was isolated from brains using Trizol (Invitrogen). RNA was then treated with RNase-free DNase (Promega, Madison, Wis., USA) and then chloroform extracted, isopropanol precipitated, washed with 75% RNA grade ethanol and resuspended in 100 μl RNase-free water.
RNA was analyzed by real-time RT-PCR using a Quantitect Sybr Green Kit as outlined by the manufacturer (Qiagen-Xeragon) on a LightCycler (Roche Diagnostics, Lewes, UK) under the following conditions: 50° C. for 20 min; 95° C. for 15 min; 38 cycles of 94° C. for 15 s, 57° C. for 20 s, 72° C. for 10 s.
cDNA fragments were amplified from claudin-5 and β-actin for each RNA sample a minimum of four times. Results were expressed as a percentage of those from the similarly standardized appropriate control experiment. The reciprocal values compared to the non-targeting control siRNA gave percentage suppression of claudin-5 expression. Mean values, standard deviations, and pooled t tests were calculated using GraphPad Prism©. Differences were deemed statistically significant at P<0.05.

[3] = MRI water diffusion in the brains of mice after claudin-5 siRNA; assay type: in vivo; settings: 24 and 48 hours post injection
Experimental: 24 and 48 hours post-delivery of siRNA targeting claudin-5 or a non-targeting siRNA mice were anaesthetised with isofluorane, and physiologically monitored (ECG, respiration and temperature) and placed on an MRI-compatible support cradle, which has a built-in system for maintaining the animal's body temperature at 37° C. The cradle was then positioned within the MRI scanner. Accurate positioning is ensured by acquiring an initial rapid pilot image, which is then used to ensure the correct geometry is scanned in all subsequent MRI experiments. Upon insertion into the MRI scanner, high resolution anatomical images of the brain were acquired (100 μm in-plane and 500 μm through-plane spatial resolution). Water diffusion scans were subsequently undertaken. Using a standard diffusion imaging sequence such as a spin-echo EPI imaging sequence with diffusion gradients (Stejskal-Taner gradients) in order to acquire images over a large range of b-values. In this way, the effect of the technique in the vascular compartment and in the brain parenchymal tissue can be compared. All experiments were carried out on a 7 T Brüker small-bore system with 400 mT/m maximum gradient strength. Image processing and calculation of ADCs was carried out using IDL.

[4] = test system: iBRB; test: MRI analysis of Gd-DTPA diffusion across the iBRB (eye); assay type: in vivo, mice; settings: 48 hours post-injection
[5] = test system: claudin-5; test: Claudin-5 expression in retina after siRNA injection (Western blot, retinal flatmounts); assay type: in vivo, mice
[6] = test system: BBB; test: BBB permeability to Hoechst H33342 (562 Da) and FD-4 (4,400 Da) co-perfusion, brain sections; assay type: in vivo, C57/Bl6 mice; settings: for extravasation of FD-4 (4,400 Da) into brain parenchyma: any time point following siRNA injection
Experimental: In order to determine the permeability of brain and retinal microvessels to a molecule of 562 Daltons, mice were perfused through the left ventricle with 500 μl/g body weight of PBS containing 100 μg/ml Hoechst stain H33342 (Sigma Aldrich, Ireland) and 1 mg/ml FITC-Dextran-4 (FD-4) 24, 48, 72 hours and 1 week post-hydrodynamic delivery of claudin-5 siRNA. Following perfusion, the whole brain was dissected and placed in 4% PFA pH 7.4 overnight at 4° C. and subsequently washed 4×15 mins with PBS. Brains were then embedded in 4% agarose and 50 μm sections were cut using a Vibratome®. Whole eyes were removed and fixed with 4% PFA, and following washing with PBS and cryoprotection using a sucrose gradient, 12 μm cryosections were cut using a cryostat. Following analysis of retinal cryosections with an Olympus FluoView™ FV1000 Confocal microscope, images were oriented correctly using Adobe® Photoshop®.

[7] = test system: BBB; test: Assessment of BBB integrity by perfusion of biotinylated tracer EZ-Link Sulfo-NHS-Biotin (443 Da); assay type: in vivo, C57/Bl6 mice
Experimental: Following RNAi-mediated ablation of transcripts encoding claudin-5, a tracer molecule was used to determine the extent to which the TJ's of the BBB had been affected. The biotinylated reagent EZ-Link™ Sulfo-NHS-Biotin (Pierce) (1 ml/g body weight of 2 mg/ml EZ-Link™ Sulfo-NHS-Biotin, 443 Da) was perfused for 5 minutes through the left ventricle of mice 24, 48, 72 hours and 1 week post-hydrodynamic delivery of claudin-5 siRNA. Following perfusion with the tracer molecule, the whole brain was dissected and placed in 4% PFA pH 7.4 overnight at 4° C. and subsequently washed 4×15 mins with PBS. Following cryoprotection with sucrose, frozen sections were cut on a cryostat at −20° C. and incubated with streptavidin conjugated to the fluorescent probe FITC. This allowed for the assessment of leakage of the biotinylated reagent of molecular weight 443 Da from the microvessels of the brain. All sections were counterstained with 4′,6-diamidine-2-phenylindole-dihydrochloride (DAPI; Sigma Aldrich, Ireland) for 30 seconds at a dilution of 1:5000 of a stock 1 mg/ml solution, and sections were visualized using an Olympus FluoView™ FV1000 Confocal microscope.

[8] = listed as siRNA targeting claudin-5

Substance: claudin-5 siRNA: siRNA, sense CGUUGGAAAUUCUGGGUCUUU (SEQ ID NO: 1), antisense AGACCCAGAAUUUCCAACGUU (SEQ ID NO: 2) (listed as RNA, chemistry not given here)
- Tie-2 (140 kDa) expression, Western blot [1]: no distinct changes
- claudin-5 mRNA level, RT-PCR, brain ([2]; 1 week post-injection, vs non-targeting control): not significantly changed
- claudin-5 mRNA levels suppressed with respect to the non-targeting control siRNA ([2]; 24 hours post-injection): up to 95%
- claudin-5 mRNA level, RT-PCR, brain ([2]; 24 hours post-injection, vs control groups): significantly decreased
- claudin-5 mRNA level, RT-PCR, brain ([2]; 24 hours post-injection, vs control groups, listed as siRNA targeting claudin-5): significant decrease
- claudin-5 mRNA level, RT-PCR, brain ([2]; 48 hours post-injection, vs control groups): showing suppression
- claudin-5 mRNA level, RT-PCR, brain ([2]; 72 hours post-injection, vs non-targeting control): not significantly changed
- rate of water diffusion in the brain, MRI [3]: no changes in diffusion
- rate of water diffusion in the brain, MRI [3, 8]: no change in the rate of water diffusion
- Gd-DTPA contrasting in the eye / iBRB integrity, MRI [4]: Strong contrasting
- Gd-DTPA contrasting in the eye / iBRB integrity, MRI [4, 8]: iBRB was compromised
- claudin-5 expression in retinal flatmounts, immunohistochemistry ([5]; 24, 48 and 72 hours post injection, vs non-targeting siRNA): decreased localisation of claudin-5 at the periphery of endothelial cells
- claudin-5 expression in retinal protein lysates, Western blot ([5]; 48 hours post injection): decreased expression
- extravasation of Hoechst H33342 (562 Da) from brain microvessels ([6]; 24 hours and 48 hours post delivery): distinct staining of nuclei in surrounding neural and glial cells
- extravasation of Hoechst H33342 (562 Da) from brain microvessels ([6]; 24 hours and 48 hours post delivery, listed as siRNA targeting claudin-5): extravasation of Hoechsct was observed; also recorded: crossed the BBB
- extravasation of Hoechst H33342 (562 Da) from brain microvessels ([6]; 72 hours or 1 week post-injection): not evident
- extravasation of FD-4 (4,400 Da) into brain parenchyma [6]: No extravasation of FD-4
- extravasation of FD-4 (4,400 Da) into brain parenchyma [6, 8]: no extravasation was evident; also recorded: failed to do so
- BBB permeability to EZ-Link Sulfo-NHS-Biotin (443 Da) ([7]; 1 week post-injection): no evidence for BBB compromise; also recorded: failed to deposit in the parenchyma; also recorded: did not allow for the passage; also recorded: no longer crossed the BBB
- BBB permeability to EZ-Link Sulfo-NHS-Biotin (443 Da) ([7]; 1 week post-injection, listed as siRNA targeting claudin-5): did not deposit in the parenchyma
- BBB permeability to EZ-Link Sulfo-NHS-Biotin (443 Da) ([7]; 24 hours post-injection, perfusion 5 minutes, listed as siRNA targeting claudin-5): diffuse and outside of the microvessels; also recorded: increase in permeability; also recorded: infiltration of the molecule into the parenchyma of the brain
- BBB permeability to EZ-Link Sulfo-NHS-Biotin (443 Da) ([7]; 48 hours post-injection): abundant in the brain parenchyma
- BBB permeability to EZ-Link Sulfo-NHS-Biotin (443 Da) ([7]; 48 hours post-injection, listed as siRNA targeting claudin-5): very distinct; also recorded: detected in abundance
- BBB permeability to EZ-Link Sulfo-NHS-Biotin (443 Da) ([7]; 72 hours post-delivery): permeability was still evident; also recorded: still evidenced
- BBB permeability to EZ-Link Sulfo-NHS-Biotin (443 Da) ([7]; 72 hours post-delivery, listed as siRNA targeting claudin-5): significant compromise in barrier function; also recorded: crossed the BBB
